Values quoted from earlier work in patent US20240180809A1, “METHOD FOR DYEING KERATIN MATERIAL, INCLUDING THE USE OF AN ORGANIC C1-C6 ALKOXY SILANE, A DYEING COMPOUND, AND A HEAT TREATMENT” (Henkel AG & Co. KGaA, priority 2021, published 2024).

Molecule	solubility in water (25° C.)	also measured
mixture of the sodium salts of mono- and sis-sulfonic acids of 2-(2-quinolyl)-1H-indene-1,3(2H)-dione [Acid Yellow 3]	20 mg/mL	
O=C([O-])c1c(Cl)c(Cl)c(Cl)c(Cl)c1-c1c2cc(Br)c(=O)c(Br)c-2oc2c(Br)c([O-])c(Br)cc12.[Na+].[Na+] [Acid Red 92, disodium salt of 3,4,5,6-tetrachloro-2-(1,4,5,8-tetrabromo-6-hydroxy-3-oxanthene-9-yl) benzoic acid]	greater than 10 g/L	
CCN(Cc1cccc(S(=O)(=O)[O-])c1)c1ccc(C(=C2C=CC(=[N+](CC)Cc3cccc(S(=O)(=O)[O-])c3)C=C2)c2ccccc2S(=O)(=O)[O-])cc1.[Na+].[Na+] [Acid Blue 9]		water solubility (25° C.): more than 20 wt. %
O=S(=O)([O-])c1ccc(N=Nc2c(O)ccc3ccccc23)cc1.[Na+] [Acid Orange 7, sodium salt of 4-[(2-hydroxy-1-naphthyl)azo]benzene sulphonate]	more than 7 g/L	
O=C([O-])C1=NN(c2ccc(S(=O)(=O)[O-])cc2)C(=O)C1N=Nc1ccc(S(=O)(=O)[O-])cc1.[Na+].[Na+].[Na+] (stereo not drawn) [Acid Yellow 23, trisodium salt of 4,5-dihydro-5-oxo-1-(4-sulfophenyl)-4-((4-sulfophenyl)azo)-1H-pyrazole-3-carboxylic acid]		solubility in water (in words) (in water at 25° C.): readily soluble
Nc1cc(S(=O)(=O)[O-])cc2cc(S(=O)(=O)[O-])c(N=Nc3ccccc3)c(O)c12.[Na+].[Na+] [Acid Red 33, disodium salt of 5-amino-4-hydroxy-3-(phenylazo)-naphthalene-2,7-disulfonate]	2.5 mg/mL	
